Test systems include UACC-257; HCT-15; OVCAR-4; UACC-62; NCI-H23; SNB-19; SW-620; A498; M14; NCI-H460; K562; MDA-MB-231; SK-MEL-2; SF-268; DU-145; RXF 393; NCI-H226; HOP-92; SK-MEL-28; CCRF-CEM.
Common to all, as to assay: growth of human tumour cells (NCI), 48 h

Consider six compounds from ChEMBL document CHEMBL1201862, “PubChem BioAssay data set” (2004).

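Exposure lasted 48 hours, with cells grown in 96-well plates and compounds tested at five concentrations. GI50 = concentration required for 50% inhibition of growth.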 The source made the active and inactive calls. Cut-off read from the data, not from the text of the source: active = GI50 up to about 1.1 µM and inactive = higher.

Consider `Clc1ccc2c(SCC3CO3)c3ccccc3nc2c1` (stereo not given), for which the GI50 is 2.49 µM (inactive) in the assay on UACC-257; 1.68 µM in the assay on HCT-15; 3.87 µM (inactive) in the assay on OVCAR-4; 3.61 µM (inactive) in the assay with UACC-62; 3.54 µM (inactive) in the assay on NCI-H23; 5.43 µM (inactive) in the assay on SNB-19. The GI50 is 1.92 µM (inactive) with SW-620; 17.3 µM (inactive) in the assay with A498; 1.72 µM (inactive) in the assay on M14; 4.27 µM (inactive) in the assay on NCI-H460; 1.87 µM (inactive) in the assay with K562; 2.33 µM (inactive) with MDA-MB-231. Moreover, the GI50 in the assay on SK-MEL-2 is 2.7 µM (inactive); with SF-268, 3.18 µM (inactive); in the assay with DU-145, 1.57 µM (inactive); with RXF 393, 2.66 µM (inactive); in the assay on NCI-H226, 22.9 µM (inactive); in the assay with HOP-92 it was 2.12 µM (inactive). Also, the GI50 with SK-MEL-28 is 2.88 µM (inactive); with CCRF-CEM, 2.43 µM (inactive).
Take `O=C1C=C2S[C@H]3C[C@]2(C=C1Br)C1=C(N3)C(=O)c2[nH]cc3c2C1=NCC3` [(+)-DISCORHABDIN B]: the GI50 is 0.213 µM (active) with UACC-257; 0.745 µM in the assay on HCT-15; 0.218 µM (active) in the assay on OVCAR-4; 0.555 µM (active) in the assay with UACC-62; 1.22 µM (inactive) in the assay on NCI-H23; 12.4 µM (inactive) with SNB-19. In addition, the GI50 was 0.0857 µM (active) with SW-620; 5.65 µM (inactive) in the assay on A498; 0.726 µM (active) in the assay with M14; 3.05 µM (inactive) in the assay on NCI-H460; 0.209 µM (active) in the assay on K562; 0.305 µM (active) with MDA-MB-231. Further, the GI50 with SK-MEL-2 was 0.469 µM (active); with SF-268, 1.54 µM (inactive); with DU-145, 1.92 µM (inactive); in the assay with RXF 393, 0.272 µM (active); in the assay on NCI-H226 it was 2.24 µM (inactive); with HOP-92, 0.973 µM (active). In addition, the GI50 is 1.4 µM (inactive) with SK-MEL-28 and 0.234 µM (active) with CCRF-CEM.
With `[O-][N+]1=NC(c2ccccc2)=C1c1ccccc1`, the GI50 in the assay with UACC-257 is > 50 µM (inactive); in the assay on HCT-15, greater than 50 µM; with OVCAR-4, > 50 µM (inactive); in the assay with UACC-62, > 50 µM (inactive); in the assay with NCI-H23, > 50 µM (inactive); with SNB-19, > 50 µM (inactive). In addition, the GI50 in the assay with SW-620, in the assay on A498, in the assay on M14, with NCI-H460, in the assay with K562 and in the assay with MDA-MB-231 was > 50 µM (inactive) each time. For the same compound, the GI50 in the assay on SK-MEL-2, in the assay with SF-268, with DU-145, with RXF 393, in the assay on NCI-H226 and in the assay on HOP-92 was > 50 µM (inactive) each time. The GI50 in the assay on SK-MEL-28 and in the assay with CCRF-CEM was > 50 µM (inactive) in each case.
Regarding `O=C1C=C/C(=N/c2ccccc2)c2ccccc21`, the GI50 was 2.64 µM (inactive) in the assay with UACC-257; 9.42 µM in the assay with HCT-15; 11.9 µM (inactive) in the assay on OVCAR-4; 3.52 µM (inactive) with UACC-62; 2.62 µM (inactive) in the assay with NCI-H23; 21.8 µM (inactive) with SNB-19. Also, the GI50 in the assay with SW-620 was 7.03 µM (inactive); in the assay on A498 it was 21.2 µM (inactive); with M14, 6.21 µM (inactive); with NCI-H460 it was 3.32 µM (inactive); in the assay with K562, 12.5 µM (inactive); with MDA-MB-231 it was 1.9 µM (inactive). In addition, the GI50 in the assay with SK-MEL-2 was 2.19 µM (inactive); with SF-268, 11.3 µM (inactive); in the assay with DU-145, 1.68 µM (inactive); in the assay with RXF 393, 10.8 µM (inactive); in the assay with NCI-H226, 11.4 µM (inactive); with HOP-92 it was 14.9 µM (inactive). The GI50 is 20.3 µM (inactive) in the assay with SK-MEL-28 and 4.29 µM (inactive) with CCRF-CEM.
For `CN/C(=N\CCSCc1nc[nH]c1C)NC#N` [CIMETIDINE], the GI50 in the assay on UACC-257 was > 100 µM (inactive); in the assay with HCT-15, greater than 100 µM; in the assay with OVCAR-4 it was 99.5 µM (inactive); in the assay with UACC-62 it was > 100 µM (inactive); with NCI-H23, > 100 µM (inactive); with SNB-19, > 100 µM (inactive). For the same compound, the GI50 in the assay with SW-620 is > 100 µM (inactive); in the assay on A498, 91.6 µM (inactive); with M14 it was > 100 µM (inactive); in the assay with NCI-H460 it was > 100 µM (inactive); in the assay with K562, > 100 µM (inactive); with MDA-MB-231, > 100 µM (inactive). In addition, the GI50 with SK-MEL-2, in the assay with SF-268, with DU-145, in the assay on RXF 393, in the assay on NCI-H226 and in the assay with HOP-92 was > 100 µM (inactive) each time. Besides, the GI50 in the assay with SK-MEL-28 and with CCRF-CEM was > 100 µM (inactive) in each case.
With `CN(CCCN(C)Cc1ccc(Cl)c(Cl)c1)CCN1CCCC1`, the GI50 is 2.62 µM (inactive) in the assay on UACC-257; 29 µM with HCT-15; 66.7 µM (inactive) with OVCAR-4; 1.85 µM (inactive) in the assay on UACC-62; 26.5 µM (inactive) in the assay on NCI-H23; 22.5 µM (inactive) in the assay with SNB-19. The GI50 in the assay with SW-620 was 19.7 µM (inactive); in the assay with A498, 13.9 µM (inactive); with M14, 5.73 µM (inactive); in the assay with NCI-H460, 16.9 µM (inactive); in the assay with K562, 4.67 µM (inactive); in the assay with MDA-MB-231, 13.1 µM (inactive). Besides, the GI50 in the assay with SK-MEL-2 is 11 µM (inactive); with SF-268, 27.5 µM (inactive); with DU-145, 62.1 µM (inactive); with RXF 393, 15.1 µM (inactive); with NCI-H226 it was 21.2 µM (inactive); in the assay on HOP-92, 4.16 µM (inactive). Further, the GI50 in the assay on SK-MEL-28 was 1.93 µM (inactive); in the assay with CCRF-CEM, 7.11 µM (inactive).
